Data published in US7473688B2, “Indolobenzazepine HCV NS5B inhibitors” (Bristol-Myers Squibb Company, priority 2005, dated 2009).

Legend:
HCV replicon = HCV replicon FRET assay; format: cell-based; details: Hepatitis C virus, Table 1b; FRET assay; read-out: EC50*
Procedure, shortened: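 HCV replicon cells, with or without Renilla luciferase reporter, incubated with titrated compounds at 37 °C; Alamar blue read for cytotoxicity. NS3 protease activity read from lysates with 20 μM EDANS/DABCYL FRET peptide (340/490 nm, kinetic), or by Dual-Glo luciferase. Background from highest protease-inhibitor wells; EC50 = 50% signal reduction.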

HCV NS5B = target: T1, HCV NS5B (Hepatitis C virus genotype 1b, UniProt Q9WMX2); test: HCV NS5B RdRp enzyme assay (preincubation protocol); format: biochemical; details: Table 1b, read-out: IC50*
T1 construct: The protein was expressed with an 18 amino acid C-terminal truncation to enhance the solubility; made in house; host or cells: E. coli BL21 (DE3), pET21a
T1 sequence (Q9WMX2 2420-2992): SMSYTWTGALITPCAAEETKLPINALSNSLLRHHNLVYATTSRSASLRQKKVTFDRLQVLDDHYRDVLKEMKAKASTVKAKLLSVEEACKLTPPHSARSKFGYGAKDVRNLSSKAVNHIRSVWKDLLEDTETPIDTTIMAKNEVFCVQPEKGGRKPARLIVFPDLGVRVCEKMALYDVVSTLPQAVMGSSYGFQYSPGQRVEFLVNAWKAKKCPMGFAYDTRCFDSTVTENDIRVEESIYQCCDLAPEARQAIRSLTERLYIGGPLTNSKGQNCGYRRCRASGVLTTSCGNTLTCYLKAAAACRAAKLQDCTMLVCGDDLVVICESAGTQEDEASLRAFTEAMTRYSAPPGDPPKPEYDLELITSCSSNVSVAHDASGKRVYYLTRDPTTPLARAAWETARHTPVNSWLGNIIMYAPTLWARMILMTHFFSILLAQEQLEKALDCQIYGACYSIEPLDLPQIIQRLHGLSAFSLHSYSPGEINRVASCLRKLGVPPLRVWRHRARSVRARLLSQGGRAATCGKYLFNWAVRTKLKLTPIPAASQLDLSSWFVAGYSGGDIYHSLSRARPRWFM
Procedure, shortened: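 Preincubation format: enzyme (14 nM, genotype 1b, 18-residue C-terminal truncation) meets diluted compound first; reaction started with bead-bound biotinylated dT12 primer, polyA template 0.2 nM and 0.29 μM 3H-UTP. Run 4 h, 30 °C in Hepes pH 7.5; scintillation proximity signal; IC50 fitted from seven inhibitor levels.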

Structure (SMILES) | EC50 (HCV replicon) [nM] | IC50 (HCV NS5B) [nM]
COc1ccc2c(c1)C=C(C(=O)N(CC(=O)O)CC(=O)O)Cn1c-2c(C2CCCCC2)c2ccc(C(=O)NS(=O)(=O)N(C)C)cc21 | > 10000 | 20 to 1000
COc1ccc2c(c1)C=C(C(=O)N(C)[C@H](C(=O)O)C(C)C)Cn1c-2c(C2CCCCC2)c2ccc(C(=O)NS(=O)(=O)N(C)C)cc21 | 30 to 1000 | < 20
COc1ccc2c(c1)C=C(C(=O)N(C)[C@H](C(=O)N(C)C)C(C)C)Cn1c-2c(C2CCCCC2)c2ccc(C(=O)NS(=O)(=O)N(C)C)cc21 | 30 to 1000 | < 20
COc1ccc2c(c1)C=C(C(=O)N(C)[C@H](C(=O)N1CCOCC1)C(C)C)Cn1c-2c(C2CCCCC2)c2ccc(C(=O)NS(=O)(=O)N(C)C)cc21 | 30 to 1000 | 20 to 1000
COc1ccc2c(c1)C=C(C(=O)N(C)Cc1ccco1)Cn1c-2c(C2CCCCC2)c2ccc(C(=O)NS(=O)(=O)N(C)C)cc21 | 30 to 1000 | < 20
COc1ccc2c(c1)C=C(C(=O)N(C)Cc1nccs1)Cn1c-2c(C2CCCCC2)c2ccc(C(=O)NS(=O)(=O)N(C)C)cc21 | 30 to 1000 | < 20
COc1ccc2c(c1)C=C(C(=O)N(CC(=O)N(C)C)CC(=O)N(C)C)Cn1c-2c(C2CCCCC2)c2ccc(C(=O)NS(=O)(=O)N(C)C)cc21 | 30 to 1000 | < 20
COc1ccc2c(c1)C=C(C(=O)N(C)[C@H](C)C(=O)O)Cn1c-2c(C2CCCCC2)c2ccc(C(=O)NS(=O)(=O)N(C)C)cc21 | 30 to 1000 | 20 to 1000
COC(=O)c1ccc2c(C3CCCCC3)c3n(c2c1)CC(C(=O)N1CCOC(CO)C1)=Cc1c(OC)cccc1-3 (centres unmarked) | > 10000 | > 12500
COc1cccc2c1C=C(C(=O)N1CCOC(CO)C1)Cn1c-2c(C2CCCCC2)c2ccc(C(=O)O)cc21 (centres unmarked) | 30 to 1000 | 20 to 1000
COC(=O)c1ccc2c(C3CCCCC3)c3n(c2c1)CC(C(=O)N1C[C@@H](C)N[C@@H](C)C1)=Cc1c(OC)cccc1-3 | > 370 | 20 to 1000
COc1cccc2c1C=C(C(=O)N1C[C@@H](C)N[C@@H](C)C1)Cn1c-2c(C2CCCCC2)c2ccc(C(=O)O)cc21 | 30 to 1000 | 20 to 1000
CN(C)C(=O)CN(C)C(=O)C1=Cc2ccccc2-c2c(C3CCCCC3)c3ccc(C(=O)Nc4ccccn4)cc3n2C1 | 1000 to 10000 | 20 to 1000
COc1ccc2c(c1)C=C(C(=O)N(C)CC(=O)N(C)C)Cn1c-2c(C2CCCCC2)c2ccc(C(=O)N(C)CC(=O)N(C)C)cc21 | 1000 to 10000 | 20 to 1000
COc1ccc2c(c1)C=C(C(=O)N1CC(NC(=O)OC(C)(C)C)C1)Cn1c-2c(C2CCCCC2)c2ccc(C(=O)NS(=O)(=O)N(C)C)cc21 | 30 to 1000 | 20 to 1000
COc1ccc2c(c1)C=C(C(=O)N1CCN(CCO)CC1)Cn1c-2c(C2CCCCC2)c2ccc(C(=O)NS(=O)(=O)N(C)C)cc21 | 30 to 1000 | 20 to 1000
COc1ccc2c(c1)C=C(C(=O)N1CCC(CO)CC1)Cn1c-2c(C2CCCCC2)c2ccc(C(=O)NS(=O)(=O)N(C)C)cc21 | 30 to 1000 | 20 to 1000
COc1ccc2c(c1)C=C(C(=O)N1CC(O)C1)Cn1c-2c(C2CCCCC2)c2ccc(C(=O)NS(=O)(=O)N(C)C)cc21 | 30 to 1000 | 20 to 1000
COc1ccc2c(c1)C=C(C(=O)N1CC(OP(=O)(O)O)C1)Cn1c-2c(C2CCCCC2)c2ccc(C(=O)NS(=O)(=O)N(C)C)cc21 | 1000 to 10000 | 20 to 1000
COc1ccc2c(c1)CC(NC(=O)N(C)CC(=O)NC(C)C)Cn1c-2c(C2CCCCC2)c2ccc(C(=O)NS(=O)(=O)N(C)C)cc21 (centres unmarked) | 30 to 1000 | 20 to 1000
COc1ccc2c(c1)CC(NC(=O)N(C)CC1CCOCC1)Cn1c-2c(C2CCCCC2)c2ccc(C(=O)NS(=O)(=O)N(C)C)cc21 (centres unmarked) | 30 to 1000 | 20 to 1000
COc1ccc2c(c1)CC(NC(=O)N(C)CC1CCCCO1)Cn1c-2c(C2CCCCC2)c2ccc(C(=O)NS(=O)(=O)N(C)C)cc21 (centres unmarked) | 30 to 1000 | 20 to 1000
COc1ccc2c(c1)CC(NC(=O)N(C)CC(N)=O)Cn1c-2c(C2CCCCC2)c2ccc(C(=O)NS(=O)(=O)N(C)C)cc21 (centres unmarked) | 30 to 1000 | 20 to 1000

Structure (SMILES) | EC50 (HCV replicon) [nM] | IC50 (HCV NS5B) [nM]
COc1ccc2c(c1)CC(NC(=O)N1CCC(C(N)=O)C1)Cn1c-2c(C2CCCCC2)c2ccc(C(=O)NS(=O)(=O)N(C)C)cc21 (centres unmarked) | 30 to 1000 | 20 to 1000
COc1ccc2c(c1)CC(NC(=O)N(C)CC(=O)NC1CC1)Cn1c-2c(C2CCCCC2)c2ccc(C(=O)NS(=O)(=O)N(C)C)cc21 (centres unmarked) | 30 to 1000 | 20 to 1000
COc1ccc2c(c1)CC(NC(=O)N1CC(OC)C1)Cn1c-2c(C2CCCCC2)c2ccc(C(=O)NS(=O)(=O)N(C)C)cc21 (centres unmarked) | 30 to 1000 | 20 to 1000
COc1ccc2c(c1)CC(NC(=O)N(C)CC(=O)N1CCN(C)CC1)Cn1c-2c(C2CCCCC2)c2ccc(C(=O)NS(=O)(=O)N(C)C)cc21 (centres unmarked) | 30 to 1000 | 20 to 1000
COc1ccc2c(c1)CC(NC(=O)N1CC(O)C1)Cn1c-2c(C2CCCCC2)c2ccc(C(=O)NS(=O)(=O)N(C)C)cc21 (centres unmarked) | 30 to 1000 | 20 to 1000
COc1ccc2c(c1)CC(NC(=O)N1C[C@@H](C)N(C)[C@@H](C)C1)Cn1c-2c(C2CCCCC2)c2ccc(C(=O)NS(=O)(=O)N(C)C)cc21 (some centres unmarked) | 30 to 1000 | 20 to 1000
COc1ccc2c(c1)C=C(C(=O)N1CCOC(CF)C1)Cn1c-2c(C2CCCCC2)c2ccc(C(=O)NS(=O)(=O)N(C)C)cc21 (centres unmarked) | 30 to 1000 | 20 to 1000
COc1cccc2c1C=C(C(=O)N1CCOC(CF)C1)Cn1c-2c(C2CCCCC2)c2ccc(C(=O)NS(=O)(=O)N(C)C)cc21 (centres unmarked) | 30 to 1000 | 20 to 1000
COc1ccc2c(c1)C=C(C(=O)N1CCN(c3cnccn3)CC1)Cn1c-2c(C2CCCCC2)c2ccc(C(=O)NS(=O)(=O)N(C)C)cc21 | 30 to 1000 | 20 to 1000
COc1ccc2c(c1)CC(C(=O)N1CCN(C(=O)C(C)(C)O)CC1)Cn1c-2c(C2CCCCC2)c2ccc(C(=O)NS(=O)(=O)N(C)C)cc21 (centres unmarked) | 30 to 1000 | 20 to 1000
COc1ccc2c(c1)C=C(C(=O)N1CCN(C(=O)C3(O)CC3)CC1)Cn1c-2c(C2CCCCC2)c2ccc(C(=O)NS(=O)(=O)N(C)C)cc21 | 30 to 1000 | 20 to 1000
COc1ccc2c(c1)C=C(C(=O)N1CC(C(=O)N(C)C)C1)Cn1c-2c(C2CCCCC2)c2ccc(C(=O)NS(=O)(=O)N(C)C)cc21 | 30 to 1000 | 20 to 1000
COc1ccc2c(c1)C=C(C(=O)N1CC(C(=O)N3CCOCC3)C1)Cn1c-2c(C2CCCCC2)c2ccc(C(=O)NS(=O)(=O)N(C)C)cc21 | 30 to 1000 | 20 to 1000
COc1ccc2c(c1)CC(C(=O)N1CCN(C(=O)C3(O)CC3)CC1)Cn1c-2c(C2CCCCC2)c2ccc(C(=O)NS(=O)(=O)N(C)C)cc21 (centres unmarked) | 30 to 1000 | 20 to 1000
COc1ccc2c(c1)C=C(C(=O)N[C@@](C)(CO)C(=O)N(C)C)Cn1c-2c(C2CCCCC2)c2ccc(C(=O)NS(=O)(=O)N(C)C)cc21 | 30 to 1000 | 20 to 1000
COc1ccc2c(c1)C=C(C(=O)N1C[C@@H](C)O[C@@H](C)C1)Cn1c-2c(C2CCCCC2)c2ccc(C(=O)NS(=O)(=O)N3CCCC3)cc21 | 30 to 1000 | 20 to 1000
COc1ccc2c(c1)C=C(C(=O)N1CCOCC1)Cn1c-2c(C2CCCCC2)c2ccc(C(=O)NS(=O)(=O)N3CCC3)cc21 | 30 to 1000 | 20 to 1000
COc1ccc2c(c1)C=C(C(=O)N1CCOCC1)Cn1c-2c(C2CCCCC2)c2ccc(C(=O)NS(=O)(=O)N3CCCC3)cc21 | 30 to 1000 | 20 to 1000
COc1ccc2c(c1)C=C(C(=O)N1C[C@@H](C)O[C@@H](C)C1)Cn1c-2c(C2CCCCC2)c2ccc(C(=O)NS(=O)(=O)N3CCC3)cc21 | 30 to 1000 | 20 to 1000
COc1ccc2c(c1)C=C(C(=O)N1CCOCC1)Cn1c-2c(C2CCCCC2)c2ccc(C(=O)NS(=O)(=O)c3ccc(C)cn3)cc21 | 30 to 1000 | 20 to 1000
COc1ccc2c(c1)C=C(C(=O)N1C[C@@H](C)O[C@@H](C)C1)Cn1c-2c(C2CCCCC2)c2ccc(C(=O)NS(=O)(=O)c3ccc(C)cn3)cc21 | 30 to 1000 | 20 to 1000
COC[C@H]1CN(C(=O)C2=Cc3cc(OC)ccc3-c3c(C4CCCCC4)c4ccc(C(=O)NS(=O)(=O)N(C)C)cc4n3C2)CCO1 | 30 to 1000 | 20 to 1000
COC[C@@H]1CN(C(=O)C2=Cc3cc(OC)ccc3-c3c(C4CCCCC4)c4ccc(C(=O)NS(=O)(=O)N(C)C)cc4n3C2)CCO1 | 30 to 1000 | 20 to 1000
